Key:
[1] = Liquid; for speed of sound / mass density: 303.15 K, 101.33 kPa; for speed of sound: Linear variable-path acoustic interferometer; for mass density: Pycnometric method
[2] = xn = mol fraction of the nth substance listed; settings: 303.15 K, 101.33 kPa, Liquid, Direct dilatometry
[3] = φn = volume fraction of the nth substance listed; settings: 303.15 K, 101.33 kPa, Liquid, Linear variable-path acoustic interferometer

ClCCCl [1,2-dichloroethane]
[1]
Settings	Normal boiling temperature [°C]	mass density [kg/m3]	speed of sound [m/s]
–	83.6	1238.28	1173.3

BrCCBr [1,2-dibromoethane] + ClC(Cl)=C(Cl)Cl
Settings	excess molar volume [m3/mol]	speed of sound [m/s]
[2], x1 = 0.1133	3e-07	–
[2], x1 = 0.2647	4.61e-07	–
[2], x1 = 0.3594	4.72e-07	–
[2], x1 = 0.4806	4.4e-07	–
[2], x1 = 0.6289	3.66e-07	–
[2], x1 = 0.7163	3.1e-07	–
[2], x1 = 0.7934	2.55e-07	–
[2], x1 = 0.906	1.43e-07	–
[3], φ1 = 0.0955	–	1010.1
[3], φ1 = 0.2327	–	992.8
[3], φ1 = 0.321	–	985.8
[3], φ1 = 0.4381	–	980.4
[3], φ1 = 0.5881	–	975.3
[3], φ1 = 0.6802	–	975.1
[3], φ1 = 0.7639	–	973.7
[3], φ1 = 0.8904	–	978.1
[3], φ1 = 1	–	984

ClCCCl [1,2-dichloroethane] + BrCCBr
Settings	speed of sound [m/s]
[3], φ2 = 0	1173.3

ClC(Cl)=C(Cl)Cl [tetrachloroethene] + BrCCBr
Settings	speed of sound [m/s]
[3], φ2 = 0	1027.8

ClC(Cl)C(Cl)Cl [1,1,2,2-tetrachloroethane]
[1]
Settings	Normal boiling temperature [°C]	mass density [kg/m3]	speed of sound [m/s]
–	146.10	1578.57	1133.1

ClC(Cl)C(Cl)Cl [1,1,2,2-tetrachloroethane] + BrCCBr
Settings	speed of sound [m/s]
[3], φ2 = 0	1133.1

BrCCBr [1,2-dibromoethane]
[1]
Settings	Normal boiling temperature [°C]	mass density [kg/m3]	speed of sound [m/s]
–	131.50	2159.67	984

CC(Cl)(Cl)Cl [1,1,1-trichloroethane] + BrCCBr
Settings	excess molar volume [m3/mol]	speed of sound [m/s]
[2], x2 = 0.0902	-7.3e-08	–
[2], x2 = 0.1941	-1.2e-07	–
[2], x2 = 0.2744	-1.33e-07	–
[2], x2 = 0.4169	-1.11e-07	–
[2], x2 = 0.5239	-6.4e-08	–
[2], x2 = 0.6304	-6e-09	–
[2], x2 = 0.6818	2.1e-08	–
[2], x2 = 0.8709	6.9e-08	–
[3], φ2 = 0	–	943.2
[3], φ2 = 0.0787	–	942.1
[3], φ2 = 0.1718	–	942.1
[3], φ2 = 0.2457	–	944.6
[3], φ2 = 0.3811	–	950.4
[3], φ2 = 0.4866	–	958.1
[3], φ2 = 0.595	–	961
[3], φ2 = 0.6486	–	965.1
[3], φ2 = 0.8532	–	973.6

BrCCBr [1,2-dibromoethane] + ClCCCl
Settings	excess molar volume [m3/mol]	speed of sound [m/s]
[2], x1 = 0.0938	1.7e-08	–
[2], x1 = 0.1759	3e-08	–
[2], x1 = 0.2673	4.2e-08	–
[2], x1 = 0.3502	4.7e-08	–
[2], x1 = 0.4894	5.2e-08	–
[2], x1 = 0.5845	5.1e-08	–
[2], x1 = 0.7764	3.5e-08	–
[2], x1 = 0.8626	2.5e-08	–
[3], φ1 = 0.1012	–	1149.2
[3], φ1 = 0.1885	–	1125
[3], φ1 = 0.2842	–	1101.8
[3], φ1 = 0.3697	–	1079.6
[3], φ1 = 0.5106	–	1047.3
[3], φ1 = 0.6049	–	1029.8
[3], φ1 = 0.7908	–	1001.3
[3], φ1 = 0.8724	–	993
[3], φ1 = 1	–	984

ClC=C(Cl)Cl [trichloroethene]
[1]
Settings	Normal boiling temperature [°C]	mass density [kg/m3]	speed of sound [m/s]
–	87.2	1451.34	1013.7

BrCCBr [1,2-dibromoethane] + CC(Cl)(Cl)Cl
Settings	speed of sound [m/s]
[3], φ1 = 1	984

BrCCBr [1,2-dibromoethane] + ClC=C(Cl)Cl
Settings	speed of sound [m/s]
[3], φ1 = 1	984

ClC=C(Cl)Cl [trichloroethene] + BrCCBr
Settings	excess molar volume [m3/mol]	speed of sound [m/s]
[2], x2 = 0.0956	6.3e-08	–
[2], x2 = 0.2077	1.29e-07	–
[2], x2 = 0.3035	1.74e-07	–
[2], x2 = 0.4561	2.09e-07	–
[2], x2 = 0.5499	2.08e-07	–
[2], x2 = 0.7069	1.64e-07	–
[2], x2 = 0.7903	1.25e-07	–
[2], x2 = 0.8924	6.4e-08	–
[3], φ2 = 0	–	1013.7
[3], φ2 = 0.0922	–	1000.5
[3], φ2 = 0.2012	–	990.5
[3], φ2 = 0.2951	–	982.5
[3], φ2 = 0.4462	–	973.5
[3], φ2 = 0.54	–	971.2
[3], φ2 = 0.6986	–	968.2
[3], φ2 = 0.7836	–	972.4
[3], φ2 = 0.8885	–	975.9

BrCCBr [1,2-dibromoethane] + ClC(Cl)C(Cl)Cl
Settings	excess molar volume [m3/mol]	speed of sound [m/s]
[2], x1 = 0.0885	-5.2e-08	–
[2], x1 = 0.1554	-9e-08	–
[2], x1 = 0.3032	-1.56e-07	–
[2], x1 = 0.4447	-1.71e-07	–
[2], x1 = 0.5365	-1.56e-07	–
[2], x1 = 0.6757	-9.8e-08	–
[2], x1 = 0.7546	-5.9e-08	–
[2], x1 = 0.9124	-3e-09	–
[3], φ1 = 0.0736	–	1123.4
[3], φ1 = 0.1308	–	1112.7
[3], φ1 = 0.2625	–	1092.9
[3], φ1 = 0.3958	–	1069.6
[3], φ1 = 0.4864	–	1054.5
[3], φ1 = 0.6302	–	1031.7
[3], φ1 = 0.7156	–	1019.7
[3], φ1 = 0.895	–	995
[3], φ1 = 1	–	984

ClC(Cl)=C(Cl)Cl [tetrachloroethene]
[1]
Settings	Normal boiling temperature [°C]	mass density [kg/m3]	speed of sound [m/s]
–	121.30	1606.36	1027.8

CC(Cl)(Cl)Cl [1,1,1-trichloroethane]
[1]
Settings	Normal boiling temperature [°C]	mass density [kg/m3]	speed of sound [m/s]
–	74	1320.92	943.2
